Data reported in patent US20230365563A1, “QUINAZOLINE COMPOUND AND APPLICATION THEREOF” (SHANGHAI PHARMACEUTICALS HOLDING CO., LTD., priority 2020, published 2023).
pIC50: −log10 of the molar value. Structures can show the parent of a compound that is named as a salt.

What follows are molecules tested against T1, KRAS-G12D and SOS1 (Homo sapiens, UniProt P01116, G12D) (assay: Inhibition of KRAS-G12D/SOS1 binding (Cisbio binding kit, 665/615 ratio), Effect Embodiment A). Settings: read-out: GTP-KRAS-G12D:SOS1 IC50.
T1 construct: purchased
T1 sequence (P01116 1-188 isoform P01116-2 G12D): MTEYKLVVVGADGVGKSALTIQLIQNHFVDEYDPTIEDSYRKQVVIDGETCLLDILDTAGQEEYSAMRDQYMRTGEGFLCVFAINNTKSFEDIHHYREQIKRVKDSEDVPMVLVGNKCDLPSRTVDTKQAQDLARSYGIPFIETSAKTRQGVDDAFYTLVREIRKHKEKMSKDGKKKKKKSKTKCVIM
Method: Similarly, the first dilution point of the compound to be tested was its storage solution, and the solution was 3-fold diluted, with 11+0 points of dilution. Echo was used to transfer 0.2 μL gradient diluted solution of the compounds into a 384-well plate, with 2 duplicated wells for each compound, and the final concentration of DMSO was 1%. The solution was centrifuged for 1 min at 1000 rpm/min.
IC50 of the compounds was fitted by Graphpad Prism 8 nonlinear regression equation: […]
The IC50 (half inhibitory concentration) of the compound was obtained by using the following nonlinear fitting formula: […]
In the case of `CN(C)C1CN(c2nc(N[C@@H]3C[C@H]4CCC[C@@H](C3)N4)c3cc(Cl)c(-c4cc(O)cc5ccccc45)c(F)c3n2)C1` (single isomer, unassigned) [Compound 32, 4-((S or R)-4-(((1R,3S,5S)-9-azabicyclo[3.3.1]nonan-3-yl)amino)-6-chloro-2-(3-(dimethylamino)azetidin-1-yl)-8-fluoroquinazolin-7-yl)naphthalen-2-ol], the pIC50 was 3.73.
`CN1CCC[C@H]1COc1nc(N2CC3CCC(C2)N3)c2cc(Cl)c(-c3cc(O)cc4ccccc34)c(F)c2n1` (single isomer, unassigned) [Compound 39b, (R or S)-4-(4-((1R,5S)-3,8-diazabicyclo[3.2.1]octan-3-yl)-6-chloro-8-fluoro-2-((S)-1-methylpyrrolidin-2-yl)methoxy)quinazolin-7-yl)naphthalen-2-ol] was tested, and the pIC50 was 4.75.
For `CN(C)CCCOc1nc(N2CC3CCC(C2)N3)c2cc(Cl)c(-c3cc(O)cc4ccccc34)c(F)c2n1` (single isomer, unassigned) [Compound 40b, (R or S)-4-(4-((1R,5,S)-3,8-diazabicyclo[3.2.1]octan-3-yl)-6-chloro-2-(3-(dimethylamino)propoxy)-8-fluoroquinazolin-7-yl)naphthalen-2-ol], the pIC50 was 5.32.
`CN(C)C1CN(c2nc(N3CC4CCC(C3)N4)c3cc(Cl)c(-c4cccc5ccccc45)c(F)c3n2)C1` (single isomer, unassigned) [Compound 42b, -((R or S)-4-((1R,5S)-3,8-diazabicyclo[3.2.1]octan-3-yl)-6-chloro-8-fluoro-7-(naphthalen-1-yl)quinazolin-2-yl)-N,N-dimethylazetidin-3-amine] was tested, and the pIC50 was 5.19.
Work on `CN(C)C1CN(c2nc(N3CC4CCC(C3)N4)c3cc(Cl)c(-c4c(O)cccc4F)c(F)c3n2)C1` (single isomer, unassigned) [Compound 43b, 2-((R or S)-4-((1R,5S)-3,8-diazabicyclo[3.2.1]octan-3-yl)-6-chloro-2-(3-(dimethylamino)azetidin-1-yl)-8-fluoroquinazolin-7-yl)-3-fluorophenol] yielded a pIC50 of 5.59.
`CN(C)C1CN(c2nc(N3CC4CCC(C3)N4)c3cc(Cl)c(-c4cc(O)cc5cccnc45)c(F)c3n2)C1` (single isomer, unassigned) [Compound 45a, 8-((S or R)-4-((1R,5S)-3,8-diazabicyclo[3.2.1]octan-3-yl)-6-chloro-2-(3-(dimethylamino)azetidin-1-yl)-8-fluoroquinazolin-7-yl)quinolin-6-o1] was tested, and the pIC50 was 5.90.
`CCN(C)CCCOc1nc(N2CC3CCC(C2)N3)c2cc(Cl)c(-c3cc(O)cc4ccccc34)c(F)c2n1` (single isomer, unassigned) [Compound 49b, 4-((R or S)-4-((1R,5S)-3,8-diazabicyclo[3.2.1]octan-3-yl)-6-chloro-2-(3-(ethyl(methyl)amino)propoxy)-8-fluoroquinazolin-7-yl)naphthalen-2-ol dicarboxylate] was tested, and the pIC50 was 4.86.
`CCCN(C)CCCOc1nc(N2CC3CCC(C2)N3)c2cc(Cl)c(-c3cc(O)cc4ccccc34)c(F)c2n1` (single isomer, unassigned) [Compound 51b, 4-((R or S)-4-((1R,5S)-3,8-diazabicyclo[3.2.1]octan-3-yl)-6-chloro-8-fluoro-2-(3-(methyl(propyl)amino)propoxy)quinazolin-7-yl)naphthalen-2-ol] gave a pIC50 of 4.29.
For `CN1CCN(c2nc(N3CC4CCC(C3)N4)c3cc(Cl)c(-c4cc(O)cc5ccccc45)c(F)c3n2)CC1` (single isomer, unassigned) [Compound 52b, 4-((R or S)-4-((1R,5S)-3,8-diazabicyclo[3.2.1]octan-3-yl)-6-chloro-8-fluoro-2-(4-methylpiperazin-1-yl)quinazolin-7-yl)naphthalen-2-ol], the pIC50 was 4.13.
Molecule `CCN(CC)CCCOc1nc(N2CC3CCC(C2)N3)c2cc(Cl)c(-c3cc(O)cc4ccccc34)c(F)c2n1` (single isomer, unassigned) [Compound 53b, 4-((R or S)-4-((1R,5,S)-3,8-diazabicyclo[3.2.1]octan-3-yl)-6-chloro-2-(3-(diethylamino)propoxy)-8-fluoroquinazolin-7-yl)naphthalen-2-ol] has a pIC50 of 5.64.
With `Oc1cc(-c2c(Cl)cc3c(N4CC5CCC(C4)N5)nc(OCCCN4CCOCC4)nc3c2F)c2ccccc2c1` (single isomer, unassigned) [Compound 54b, 4-((R or S)-4-((1R,5S)-3,8-diazabicyclo[3.2.1]octan-3-yl)-6-chloro-8-fluoro-2-(3-morpholinopropoxy)quinazolin-7-yl)naphthalen-2-ol dihydrochloride] the pIC50 was 4.66.
In the case of `CN1CCCC[C@H]1COc1nc(N2CC3CCC(C2)N3)c2cc(Cl)c(-c3cc(O)cc4ccccc34)c(F)c2n1` (single isomer, unassigned) [Compound 56b, 4-((R or S)-4-((1R,5S)-3,8-diazabicyclo[3.2.1]octan-3-yl)-6-chloro-8-fluoro-2-((S)-1-methylpiperidin-2-yl)methoxy)quinazolin-7-yl)naphthalen-2-ol dihydrochloride], the pIC50 was 4.80.
Molecule `Oc1cc(-c2c(Cl)cc3c(N4CC5CCC(C4)N5)nc(OCC45CCCN4CCC5)nc3c2F)c2ccccc2c1` (single isomer, unassigned) [Compound 58b, 4-((R or S)-4-((1R,5S)-3,8-diazabicyclo[3.2.1]octan-3-yl)-6-chloro-8-fluoro-2-((tetrahydro-1H-pyrrolin-7a(5H)-yl)methoxy)quinazolin-7-yl)naphthalen-2-ol] has a pIC50 of 4.82.
In the case of `Oc1cc(-c2c(Cl)cc3c(N4CC5CCC(C4)N5)nc(OCCCN4CCC4)nc3c2F)c2ccccc2c1` (single isomer, unassigned) [Compound 59b, 4-((R or S)-2-(3-(azetidin-1-yl)propoxy)-4-((1R,5S)-3,8-diazabicyclo[3.2.1]octan-3-yl)-6-chloro-8-fluoroquinazolin-7-yl)naphthalen-2-ol], the pIC50 was 5.22.
For `CN(C)CCCCOc1nc(N2CC3CCC(C2)N3)c2cc(Cl)c(-c3cc(O)cc4ccccc34)c(F)c2n1` (single isomer, unassigned) [Compound 60b, 4-((R or S)-4-((1R,5S)-3,8-diazabicyclo[3.2.1]octan-3-yl)-6-chloro-2-(4-(dimethylamino)butoxy)-8-fluoroquinazolin-7-yl)naphthalen-2-ol], the pIC50 was 4.14.
In the case of `Oc1cc(-c2c(Cl)cc3c(N4CC5CCC(C4)N5)nc(OCCCN4CCCC4)nc3c2F)c2ccccc2c1` (single isomer, unassigned) [Compound 63b, 4-((R or S)-4-((1R,5S)-3,8-diazabicyclo[3.2.1]octan-3-yl)-6-chloro-8-fluoro-2-(3-(pyrrolidin-1-yl)propoxy)quinazolin-7-yl)naphthalen-2-ol], the pIC50 was 4.89.
For `CN(C)C1CN(c2nc(N3CC4CCC(C3)N4)c3cc(Cl)c(-c4cc(O)cc5cccc(F)c45)c(F)c3n2)C1` (single isomer, unassigned) [Compound 64a, 4-((S or R)-4-((1R,5S)-3,8-diazabicyclo[3.2.1]octan-3-yl)-6-chloro-2-(3-(dimethylamino)azetidin-1-yl)-8-fluoroquinazolin-7-yl)-5-fluoronaphthalen-2-ol], the pIC50 was 4.50.
For `CN(C)C1CN(c2nc(N3CC4CCC(C3)N4)c3cc(Cl)c(-c4cc(O)cc5cccc(Cl)c45)c(F)c3n2)C1` (single isomer, unassigned) [Compound 65a, 4-((S or R)-4-((1R,5S)-3,8-diazabicyclo[3.2.1]octan-3-yl)-6-chloro-2-(3-(dimethylamino)azetidin-1-yl)-8-fluoroquinazolin-7-yl)-5-chloronaphthalen-2-ol], the pIC50 was 4.35.
With `Oc1cc(-c2c(Cl)cc3c(N4CC5CCC(C4)N5)nc(OCCCN4CCCCC4)nc3c2F)c2ccccc2c1` (single isomer, unassigned) [Compound 66b, 4-((R or S)-4-((1R,5S)-3,8-diazabicyclo[3.2.1]octan-3-yl)-6-chloro-8-fluoro-2-(3-(piperidin-1-yl)propoxy)quinazolin-7-yl)naphthalen-2-ol] the pIC50 was 4.74.
Work on `CN(C)C1CN(c2nc(N=S3(=O)CCC(N)CC3)c3cc(Cl)c(-c4cc(O)cc5ccccc45)c(F)c3n2)C1` (single isomer, unassigned) [Compound 72a, (4R or S)-4-amino-1-(((R or S)-6-chloro-2-(3-(dimethylamino)azetidin-1-yl)-8-fluoro-7-(3-hydroxynaphthalen-1-yl)quinazolin-4-yl)imino)hexahydro-1-thiopyran 1-oxide] yielded a pIC50 of less than 3.70.
`CN(C)C1CN(c2nc(N=S3(=O)CCC(N)CC3)c3cc(Cl)c(-c4cc(O)cc5ccccc45)c(F)c3n2)C1` (single isomer, unassigned) [Compound 72b, (4R or S)-4-amino-1-(((S or R)-6-chloro-2-(3-(dimethylamino)azetidin-1-yl)-8-fluoro-7-(3-hydroxynaphthalen-1-yl)quinazolin-4-yl)imino)hexahydro-1-thiopyran 1-oxide] showed a pIC50 of 3.81.
In the case of `CN(C)C1CN(c2nc(N=S3(=O)CCC(N)CC3)c3cc(Cl)c(-c4cc(O)cc5ccccc45)c(F)c3n2)C1` (single isomer, unassigned) [Compound 72c, (4S or R)-4-amino-1-(((R or S)-6-chloro-2-(3-(dimethylamino)azetidin-1-yl)-8-fluoro-7-(3-hydroxynaphthalen-1-yl)quinazolin-4-yl)imino)hexahydro-1-thiopyran 1-oxide], the pIC50 was less than 3.70.
`CN(C)C1CN(c2nc(N=S3(=O)CCC(N)CC3)c3cc(Cl)c(-c4cc(O)cc5ccccc45)c(F)c3n2)C1` (single isomer, unassigned) [Compound 72d, (4S or R)-4-amino-1-(((S or R)-6-chloro-2-(3-(dimethylamino)azetidin-1-yl)-8-fluoro-7-(3-hydroxynaphthalen-1-yl)quinazolin-4-yl)imino)hexahydro-1-thiopyran 1-oxide] was tested, and the pIC50 was 3.76.
